According to PubChem BioAssay (NCI):
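Grown in 96-well plates, cells were treated for 48 hours with each compound at five concentrations. Insufficient inhibition: endpoint recorded as highest concentration tested. GI50 = concentration required for 50% inhibition of growth. At the TGI there is no net growth.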

How the values were obtained:
Assay in all cases: NCI anticancer screen, dose series, 48 h
U251 CNS = test system: U251 CNS
CAKI-1 renal = test system: CAKI-1 renal
UO-31 renal = test system: UO-31 renal
LOX IMVI melanoma = test system: LOX IMVI melanoma
T-47D breast = test system: T-47D breast
SK-MEL-28 melanoma = test system: SK-MEL-28 melanoma
M14 melanoma = test system: M14 melanoma
OVCAR-5 ovarian = test system: OVCAR-5 ovarian
EKVX NSCLC = test system: EKVX NSCLC
MDA-MB-231 breast = test system: MDA-MB-231 breast
SK-OV-3 ovarian = test system: SK-OV-3 ovarian
ACHN renal = test system: ACHN renal
UACC-62 melanoma = test system: UACC-62 melanoma
HOP-62 NSCLC = test system: HOP-62 NSCLC
HT29 colon = test system: HT29 colon
PC-3 prostate = test system: PC-3 prostate
RXF 393 renal = test system: RXF 393 renal
SW-620 colon = test system: SW-620 colon
NCI-H522 lung = test system: NCI-H522 lung
MCF7 breast = test system: MCF7 breast
OVCAR-4 ovarian = test system: OVCAR-4 ovarian
NCI/ADR-RES ovarian = test system: NCI/ADR-RES ovarian
HL-60(TB) leukemia = test system: HL-60(TB) leukemia
HOP-92 NSCLC = test system: HOP-92 NSCLC
SNB-75 CNS = test system: SNB-75 CNS
UACC-257 melanoma = test system: UACC-257 melanoma
SK-MEL-5 melanoma = test system: SK-MEL-5 melanoma
HCT-15 colon = test system: HCT-15 colon
HCC-2998 colon = test system: HCC-2998 colon
MOLT-4 leukemia = test system: MOLT-4 leukemia
A549 NSCLC = test system: A549 NSCLC
HS 578T breast = test system: HS 578T breast
BT-549 breast = test system: BT-549 breast
MDA-MB-435 = test system: MDA-MB-435
SF-268 CNS = test system: SF-268 CNS
OVCAR-3 ovarian = test system: OVCAR-3 ovarian
NCI-H226 lung = test system: NCI-H226 lung
OVCAR-8 ovarian = test system: OVCAR-8 ovarian
NCI-H23 lung = test system: NCI-H23 lung
KM12 colon = test system: KM12 colon
COLO 205 colon = test system: COLO 205 colon
TK-10 renal = test system: TK-10 renal
IGROV1 ovarian = test system: IGROV1 ovarian
SR leukemia = test system: SR leukemia
786-0 renal = test system: 786-0 renal
SF-295 CNS = test system: SF-295 CNS
NCI-H460 lung = test system: NCI-H460 lung
A498 renal = test system: A498 renal
SN12C renal = test system: SN12C renal
SNB-19 CNS = test system: SNB-19 CNS
SF-539 CNS = test system: SF-539 CNS
K-562 leukemia = test system: K-562 leukemia
SK-MEL-2 melanoma = test system: SK-MEL-2 melanoma
CCRF-CEM leukemia = test system: CCRF-CEM leukemia
HCT-116 colon = test system: HCT-116 colon
DU-145 prostate = test system: DU-145 prostate

Question: Which results are given for `CC(=O)Nc1cc2c3c(cccc3c1)-c1ccccc1-2`?
Answer: GI50 (U251 CNS): 39.3 µM; TGI (U251 CNS): > 100 µM; GI50 (CAKI-1 renal): 4 µM; TGI (CAKI-1 renal): 23.8 µM; GI50 (UO-31 renal): 0.356 µM; TGI (UO-31 renal): 15.3 µM; GI50 (LOX IMVI melanoma): 38.9 µM; TGI (LOX IMVI melanoma): > 100 µM; GI50 (T-47D breast): 37.3 µM; TGI (T-47D breast): > 100 µM; GI50 (SK-MEL-28 melanoma): > 100 µM; TGI (SK-MEL-28 melanoma): > 100 µM; GI50 (M14 melanoma): > 100 µM; TGI (M14 melanoma): > 100 µM; GI50 (OVCAR-5 ovarian): 16.7 µM; TGI (OVCAR-5 ovarian): 35.7 µM; GI50 (EKVX NSCLC): 7.94 µM; TGI (EKVX NSCLC): 38.9 µM; GI50 (MDA-MB-231 breast): 10.6 µM; TGI (MDA-MB-231 breast): 25.8 µM; GI50 (SK-OV-3 ovarian): 26.5 µM; TGI (SK-OV-3 ovarian): 84.3 µM; GI50 (ACHN renal): 19.2 µM; TGI (ACHN renal): 52.2 µM; GI50 (UACC-62 melanoma): 40 µM; TGI (UACC-62 melanoma): > 100 µM; GI50 (HOP-62 NSCLC): 22.7 µM; TGI (HOP-62 NSCLC): 69.5 µM; GI50 (HT29 colon): > 100 µM; TGI (HT29 colon): > 100 µM; GI50 (PC-3 prostate): 14.8 µM; TGI (PC-3 prostate): > 100 µM; GI50 (RXF 393 renal): 15.8 µM; TGI (RXF 393 renal): 34.9 µM; GI50 (SW-620 colon): 95.6 µM; TGI (SW-620 colon): > 100 µM; GI50 (NCI-H522 lung): > 100 µM; TGI (NCI-H522 lung): > 100 µM; GI50 (MCF7 breast): > 100 µM; TGI (MCF7 breast): > 100 µM; GI50 (OVCAR-4 ovarian): > 100 µM; TGI (OVCAR-4 ovarian): > 100 µM; GI50 (NCI/ADR-RES ovarian): 26.1 µM; TGI (NCI/ADR-RES ovarian): > 100 µM; GI50 (HL-60(TB) leukemia): 0.25 µM; TGI (HL-60(TB) leukemia): > 100 µM; GI50 (HOP-92 NSCLC): 17.8 µM; TGI (HOP-92 NSCLC): 44.8 µM; GI50 (SNB-75 CNS): > 100 µM; TGI (SNB-75 CNS): > 100 µM; GI50 (UACC-257 melanoma): 90.3 µM; TGI (UACC-257 melanoma): > 100 µM; GI50 (SK-MEL-5 melanoma): > 100 µM; TGI (SK-MEL-5 melanoma): > 100 µM; GI50 (HCT-15 colon): > 100 µM; TGI (HCT-15 colon): > 100 µM; GI50 (HCC-2998 colon): 18.8 µM; TGI (HCC-2998 colon): 52.5 µM; GI50 (MOLT-4 leukemia): 5.72 µM; TGI (MOLT-4 leukemia): > 100 µM; GI50 (A549 NSCLC): 3.72 µM; TGI (A549 NSCLC): > 100 µM; GI50 (HS 578T breast): 29.3 µM; TGI (HS 578T breast): 94.6 µM; GI50 (BT-549 breast): 64.6 µM; TGI (BT-549 breast): > 100 µM; GI50 (MDA-MB-435): 30 µM; TGI (MDA-MB-435): > 100 µM; GI50 (SF-268 CNS): 8.94 µM; TGI (SF-268 CNS): > 100 µM; GI50 (OVCAR-3 ovarian): 52.2 µM; TGI (OVCAR-3 ovarian): > 100 µM; GI50 (NCI-H226 lung): 37.8 µM; TGI (NCI-H226 lung): > 100 µM; GI50 (OVCAR-8 ovarian): 45.9 µM; TGI (OVCAR-8 ovarian): > 100 µM; GI50 (NCI-H23 lung): 38.5 µM; TGI (NCI-H23 lung): > 100 µM; GI50 (KM12 colon): 32.7 µM; TGI (KM12 colon): > 100 µM; GI50 (COLO 205 colon): > 100 µM; TGI (COLO 205 colon): > 100 µM; GI50 (TK-10 renal): 18.1 µM; TGI (TK-10 renal): 32.5 µM; GI50 (IGROV1 ovarian): 24.2 µM; TGI (IGROV1 ovarian): > 100 µM; GI50 (SR leukemia): 28.6 µM; TGI (SR leukemia): > 100 µM; GI50 (786-0 renal): 14.2 µM; TGI (786-0 renal): 40 µM; GI50 (SF-295 CNS): 5.13 µM; TGI (SF-295 CNS): 22.6 µM; GI50 (NCI-H460 lung): 29.6 µM; TGI (NCI-H460 lung): > 100 µM; GI50 (A498 renal): 11.6 µM; TGI (A498 renal): 28.6 µM; GI50 (SN12C renal): 0.72 µM; TGI (SN12C renal): > 100 µM; GI50 (SNB-19 CNS): 40.2 µM; TGI (SNB-19 CNS): > 100 µM; GI50 (SF-539 CNS): > 100 µM; TGI (SF-539 CNS): > 100 µM; GI50 (K-562 leukemia): > 100 µM; TGI (K-562 leukemia): > 100 µM; GI50 (SK-MEL-2 melanoma): 70 µM; TGI (SK-MEL-2 melanoma): > 100 µM; GI50 (CCRF-CEM leukemia): 0.992 µM; TGI (CCRF-CEM leukemia): > 100 µM; GI50 (HCT-116 colon): > 100 µM; TGI (HCT-116 colon): > 100 µM; GI50 (DU-145 prostate): 16.3 µM; TGI (DU-145 prostate): 30.2 µM
